In BindingDB's records for doi:10.1021/jm070299x (Bristol Myers Squibb, 2007):

target: Inosine-5'-monophosphate dehydrogenase 2 (Homo sapiens, UniProt P12268); experiment: IMPDH2 Enzyme Inhibition and Human T-Lymphoblast (CEM) Proliferation Inhibition Assays; conditions: pH 8; 25 °C
Method: Inhibition assays were performed using recombinant human IMPDH type 2 and varying concentrations of inhibitor. The production of NADH was monitored by following changes in absorbance at 340 nm. […] The in vivo activities of compounds were also evaluated the inhibition of T-cell proliferation in CEM lymphoblast cells. The EC50/IC50 values were calculated using a four-parameter logistic plot.

SMILES	IC50 [µM]
CC(C)(NC(=O)c1cc2[nH]c3ccccc3c(=O)c2cc1F)c1ccccc1 [2-fluoro-9-oxo-N-(2-phenylpropan-2-yl)-9,10-dihydroacridine-3-carboxamide]	0.83
CC(C)(NC(=O)c1cc2[nH]c3ccccc3c(=O)c2cc1F)c1cccnc1 [2-fluoro-9-oxo-N-[2-(pyridin-3-yl)propan-2-yl]-9,10-dihydroacridine-3-carboxamide]	0.42
Cc1cc(C(C)(C)NC(=O)c2cc3[nH]c4ccccc4c(=O)c3cc2F)cnc1N1CCOCC1 [2-fluoro-N-{2-[5-methyl-6-(morpholin-4-yl)pyridin-3-yl]propan-2-yl}-9-oxo-9,10-dihydroacridine-3-carboxamide]	0.87
CC(C)(NC(=O)c1ccc2c(=O)c3ccccc3[nH]c2c1)c1ccccc1 [9-oxo-N-(2-phenylpropan-2-yl)-9,10-dihydroacridine-3-carboxamide]	2.1
CN(C)S(=O)(=O)c1cccc(C(C)(C)NC(=O)c2cc3[nH]c4ccccc4c(=O)c3cc2F)c1 [N-{2-[3-(dimethylsulfamoyl)phenyl]propan-2-yl}-2-fluoro-9-oxo-9,10-dihydroacridine-3-carboxamide]	0.38
CC(C)(NC(=O)c1ccc2c(=O)c3ccccc3[nH]c2c1)c1cccnc1 [9-oxo-N-[2-(pyridin-3-yl)propan-2-yl]-9,10-dihydroacridine-3-carboxamide]	2.2
COc1cc(C(C)(C)NC(=O)c2cc3[nH]c4ccccc4c(=O)c3cc2F)cnc1N1CCOCC1 [2-fluoro-N-{2-[5-methoxy-6-(morpholin-4-yl)pyridin-3-yl]propan-2-yl}-9-oxo-9,10-dihydroacridine-3-carboxamide]	0.81
CN(C)c1ccc(C(C)(C)NC(=O)c2cc3[nH]c4ccccc4c(=O)c3cc2F)cn1 [N-{2-[6-(dimethylamino)pyridin-3-yl]propan-2-yl}-2-fluoro-9-oxo-9,10-dihydroacridine-3-carboxamide]	0.85
CN(C)c1cc(C(C)(C)NC(=O)c2cc3[nH]c4ccccc4c(=O)c3cc2F)ccn1 [N-{2-[2-(dimethylamino)pyridin-4-yl]propan-2-yl}-2-fluoro-9-oxo-9,10-dihydroacridine-3-carboxamide]	0.64
CC(C)(NC(=O)c1cc2[nH]c3ccccc3c(=O)c2cc1F)c1cnc2c(c1)OCCN2 [2-fluoro-9-oxo-N-(2-{2H,3H,4H-pyrido[3,2-b][1,4]oxazin-7-yl}propan-2-yl)-9,10-dihydroacridine-3-carboxamide]	0.92
CC(C)(NC(=O)c1ccc2c(=O)c3ccccc3[nH]c2c1)c1ccccn1 [9-oxo-N-[2-(pyridin-2-yl)propan-2-yl]-9,10-dihydroacridine-3-carboxamide]	2.2
CN(C)CCOc1ccc(C(C)(C)NC(=O)c2cc3[nH]c4ccccc4c(=O)c3cc2F)cc1 [N-(2-{4-[2-(dimethylamino)ethoxy]phenyl}propan-2-yl)-2-fluoro-9-oxo-9,10-dihydroacridine-3-carboxamide]	0.56
Cc1ccc(C(C)(C)NC(=O)c2cc3[nH]c4ccccc4c(=O)c3cc2F)cn1 [2-fluoro-N-[2-(6-methylpyridin-3-yl)propan-2-yl]-9-oxo-9,10-dihydroacridine-3-carboxamide]	0.75
CC(C)(NC(=O)c1cc2[nH]c3ccccc3c(=O)c2cc1F)c1ccc(S(C)(=O)=O)cc1 [2-fluoro-N-[2-(4-methanesulfonylphenyl)propan-2-yl]-9-oxo-9,10-dihydroacridine-3-carboxamide]	0.48
CCN1CCN(c2ccc(C(C)(C)NC(=O)c3cc4[nH]c5ccccc5c(=O)c4cc3F)cn2)CC1 [Acridone-Based Inhibitor, 4m]	0.77
CC(C)(NC(=O)c1cc2[nH]c3ccccc3c(=O)c2cc1F)c1ccc(N2CCOCC2)nc1 [2-fluoro-N-{2-[6-(morpholin-4-yl)pyridin-3-yl]propan-2-yl}-9-oxo-9,10-dihydroacridine-3-carboxamide]	0.66
CN(C)S(=O)(=O)c1ccc(C(C)(C)NC(=O)c2cc3[nH]c4ccccc4c(=O)c3cc2F)cc1 [N-{2-[4-(dimethylsulfamoyl)phenyl]propan-2-yl}-2-fluoro-9-oxo-9,10-dihydroacridine-3-carboxamide]	0.66
CC(C)(NC(=O)c1cc2[nH]c3ccccc3c(=O)c2cc1F)c1cccc(S(C)(=O)=O)c1 [2-fluoro-N-[2-(3-methanesulfonylphenyl)propan-2-yl]-9-oxo-9,10-dihydroacridine-3-carboxamide]	0.58
CC(C)(NC(=O)c1ccc2c(=O)c3ccccc3[nH]c2c1)c1ccncc1 [9-oxo-N-[2-(pyridin-4-yl)propan-2-yl]-9,10-dihydroacridine-3-carboxamide]	2.3
CC(C)(C)NC(=O)c1ccc2c(=O)c3ccccc3[nH]c2c1 [N-tert-butyl-9-oxo-9,10-dihydroacridine-3-carboxamide]	3.3
CC(C)(NC(=O)c1cc2[nH]c3ccccc3c(=O)c2cc1F)c1ccccn1 [2-fluoro-9-oxo-N-[2-(pyridin-2-yl)propan-2-yl]-9,10-dihydroacridine-3-carboxamide]	1
CCOC(=O)c1ccc2c(=O)c3ccccc3[nH]c2c1 [ethyl 9-oxo-9,10-dihydroacridine-3-carboxylate]	> 10

same assay, conditions: pH 8; 25 °C; read-out: IC50

SMILES	IC50 [µM]
CCOC(=O)c1ccc2c(=O)c3ccccc3[nH]c2c1 [ethyl 9-oxo-9,10-dihydroacridine-3-carboxylate]	0.059
